Laboratory results published in PubChem BioAssay AID1259407 (Chemical Carcinogenesis Research Information System (CCRIS), 2018).
Active and inactive are the calls of the source. How the calls were made is not given here.

System: CCRIS mutagenicity, Ames/micronucleus/aberration tests
Test: CCRIS mutagenicity studies
[1] = Test System: AMES SALMONELLA TYPHIMURIUM, Strain/Indicator: TA98, Metabolic Activation: NONE, Method: STANDARD PLATE
[2] = Test System: AMES SALMONELLA TYPHIMURIUM, Strain/Indicator: TA100, Metabolic Activation: NONE, Method: STANDARD PLATE
[3] = Test System: AMES SALMONELLA TYPHIMURIUM, Strain/Indicator: TA98, Metabolic Activation: NONE, Method: PREINCUBATION
[4] = Test System: AMES SALMONELLA TYPHIMURIUM, Strain/Indicator: TA100, Metabolic Activation: NONE, Method: PREINCUBATION
[5] = Test System: AMES SALMONELLA TYPHIMURIUM, Strain/Indicator: TA97, Metabolic Activation: NONE, Method: PREINCUBATION
[6] = Test System: AMES SALMONELLA TYPHIMURIUM, Strain/Indicator: TA1535, Metabolic Activation: NONE, Method: PREINCUBATION

SMILES: COCC(O)Cn1cc([N+](=O)[O-])nc1Cl (configuration not stated)
- mutagenic call [1]: inactive; negative
- mutagenic call (Test System: AMES SALMONELLA TYPHIMURIUM, Strain/Indicator: TA98, Metabolic Activation: RAT, LIVER, S-9, Method: STANDARD PLATE): active; positive
- mutagenic call [2]: active; positive
- mutagenic call (Test System: AMES SALMONELLA TYPHIMURIUM, Strain/Indicator: TA100, Metabolic Activation: RAT, LIVER, S-9, Method: STANDARD PLATE): active; positive

SMILES: OCCN1CCNCC1
- mutagenic call [3]: inactive; negative
- mutagenic call (Test System: AMES SALMONELLA TYPHIMURIUM, Strain/Indicator: TA98, Metabolic Activation: RAT, LIVER, S-9, PCB, Method: PREINCUBATION): inactive; negative
- mutagenic call [4]: inactive; negative
- mutagenic call (Test System: AMES SALMONELLA TYPHIMURIUM, Strain/Indicator: TA100, Metabolic Activation: RAT, LIVER, S-9, PCB, Method: PREINCUBATION): inactive; negative

SMILES: CC(N)(CN=[N+]=[N-])C(=O)O (configuration not stated)
- mutagenic call (Test System: AMES SALMONELLA TYPHIMURIUM, Strain/Indicator: TA1530, Metabolic Activation: NONE, Method: STANDARD PLATE): active; positive

SMILES: Cc1c(C)c2c(N)c3ccccc3nc2c2ccccc12
- mutagenic call [5]: active; positive
- mutagenic call (Test System: AMES SALMONELLA TYPHIMURIUM, Strain/Indicator: TA97, Metabolic Activation: NONE, Method: STANDARD PLATE): active; positive
- mutagenic call [3]: active; positive
- mutagenic call (Test System: AMES SALMONELLA TYPHIMURIUM, Strain/Indicator: TA1537, Metabolic Activation: NONE, Method: PREINCUBATION): inactive; negative
- mutagenic call (Test System: AMES SALMONELLA TYPHIMURIUM, Strain/Indicator: TA1537, Metabolic Activation: NONE, Method: STANDARD PLATE): active; positive

SMILES: Cc1ccc(C)c(N)c1
- mutagenic call (Test System: AMES SALMONELLA TYPHIMURIUM, Strain/Indicator: TA97, Metabolic Activation: HAMSTER, LIVER, S-9, AROCLOR 1254 (10%), Method: PREINCUBATION): inactive; negative
- mutagenic call [5]: inactive; negative
- mutagenic call (Test System: AMES SALMONELLA TYPHIMURIUM, Strain/Indicator: TA97, Metabolic Activation: RAT, LIVER, S-9, AROCLOR 1254 (10%), Method: PREINCUBATION): inactive; negative
- mutagenic call (Test System: AMES SALMONELLA TYPHIMURIUM, Strain/Indicator: TA98, Metabolic Activation: HAMSTER, LIVER, S-9, AROCLOR 1254 (10%), Method: PREINCUBATION): active; positive
- mutagenic call [3]: inactive; negative
- mutagenic call (Test System: AMES SALMONELLA TYPHIMURIUM, Strain/Indicator: TA98, Metabolic Activation: RAT, LIVER, S-9, AROCLOR 1254 (10%), Method: PREINCUBATION): active; positive
- mutagenic call (Test System: AMES SALMONELLA TYPHIMURIUM, Strain/Indicator: TA100, Metabolic Activation: HAMSTER, LIVER, S-9, AROCLOR 1254 (10%), Method: PREINCUBATION): active; positive
- mutagenic call [4]: inactive; negative
- mutagenic call (Test System: AMES SALMONELLA TYPHIMURIUM, Strain/Indicator: TA100, Metabolic Activation: RAT, LIVER, S-9, AROCLOR 1254 (10%), Method: PREINCUBATION): inactive; negative
- mutagenic call (Test System: AMES SALMONELLA TYPHIMURIUM, Strain/Indicator: TA1535, Metabolic Activation: HAMSTER, LIVER, S-9, AROCLOR 1254 (10%), Method: PREINCUBATION): inactive; negative
- mutagenic call [6]: inactive; negative
- mutagenic call (Test System: AMES SALMONELLA TYPHIMURIUM, Strain/Indicator: TA1535, Metabolic Activation: RAT, LIVER, S-9, AROCLOR 1254 (10%), Method: PREINCUBATION): inactive; negative
- mutagenic call (Test System: AMES SALMONELLA TYPHIMURIUM, Strain/Indicator: TA1537, Metabolic Activation: HAMSTER, LIVER, S-9, AROCLOR 1254 (10%), Method: PREINCUBATION): active; positive
- mutagenic call (Test System: AMES SALMONELLA TYPHIMURIUM, Strain/Indicator: TA1537, Metabolic Activation: RAT, LIVER, S-9, AROCLOR 1254 (10%), Method: PREINCUBATION): inactive; negative

SMILES: COCCO
- mutagenic call (Test System: AMES SALMONELLA TYPHIMURIUM, Strain/Indicator: TA97, Metabolic Activation: HAMSTER, LIVER, S-9, AROCLOR 1254 (10 OR 30%), Method: PREINCUBATION): inactive; negative
- mutagenic call [5]: inactive; negative
- mutagenic call (Test System: AMES SALMONELLA TYPHIMURIUM, Strain/Indicator: TA97, Metabolic Activation: RAT, LIVER, S-9, AROCLOR 1254 (10 OR 30%), Method: PREINCUBATION): inactive; negative
- mutagenic call (Test System: AMES SALMONELLA TYPHIMURIUM, Strain/Indicator: TA97A, Metabolic Activation: NONE, Method: STANDARD PLATE): inactive; negative
- mutagenic call (Test System: AMES SALMONELLA TYPHIMURIUM, Strain/Indicator: TA97A, Metabolic Activation: RAT, LIVER, S-9, AROCLOR 1254, Method: STANDARD PLATE): inactive; negative
- mutagenic call (Test System: AMES SALMONELLA TYPHIMURIUM, Strain/Indicator: TA98, Metabolic Activation: HAMSTER, LIVER, S-9, AROCLOR 1254 (10 OR 30%), Method: PREINCUBATION): inactive; negative
- mutagenic call [3]: inactive; negative
- mutagenic call [1]: inactive; negative
- mutagenic call (Test System: AMES SALMONELLA TYPHIMURIUM, Strain/Indicator: TA98, Metabolic Activation: RAT, LIVER, S-9, AROCLOR 1254 (10 OR 30%), Method: PREINCUBATION): inactive; negative
- mutagenic call (Test System: AMES SALMONELLA TYPHIMURIUM, Strain/Indicator: TA98, Metabolic Activation: RAT, LIVER, S-9, AROCLOR 1254, Method: STANDARD PLATE): inactive; negative
- mutagenic call (Test System: AMES SALMONELLA TYPHIMURIUM, Strain/Indicator: TA100, Metabolic Activation: HAMSTER, LIVER, S-9, AROCLOR 1254 (10 OR 30%), Method: PREINCUBATION): inactive; negative
- mutagenic call [4]: inactive; negative
- mutagenic call [2]: inactive; negative
- mutagenic call (Test System: AMES SALMONELLA TYPHIMURIUM, Strain/Indicator: TA100, Metabolic Activation: RAT, LIVER, S-9, AROCLOR 1254 (10 OR 30%), Method: PREINCUBATION): inactive; negative
- mutagenic call (Test System: AMES SALMONELLA TYPHIMURIUM, Strain/Indicator: TA100, Metabolic Activation: RAT, LIVER, S-9, AROCLOR 1254, Method: STANDARD PLATE): inactive; negative
- mutagenic call (Test System: AMES SALMONELLA TYPHIMURIUM, Strain/Indicator: TA102, Metabolic Activation: NONE, Method: STANDARD PLATE): inactive; negative
- mutagenic call (Test System: AMES SALMONELLA TYPHIMURIUM, Strain/Indicator: TA102, Metabolic Activation: RAT, LIVER, S-9, AROCLOR 1254, Method: STANDARD PLATE): inactive; negative
- mutagenic call (Test System: AMES SALMONELLA TYPHIMURIUM, Strain/Indicator: TA1535, Metabolic Activation: HAMSTER, LIVER, S-9, AROCLOR 1254 (10 OR 30%), Method: PREINCUBATION): inactive; negative
- mutagenic call [6]: inactive; negative
- mutagenic call (Test System: AMES SALMONELLA TYPHIMURIUM, Strain/Indicator: TA1535, Metabolic Activation: RAT, LIVER, S-9, AROCLOR 1254 (10 OR 30%), Method: PREINCUBATION): inactive; negative
- mutagenic call (Test System: CHINESE HAMSTER OVARY, Strain/Indicator: CHO AS52 (GPT)/6-THIOGUANINE, Metabolic Activation: NONE): inactive; negative
- mutagenic call (Test System: CHINESE HAMSTER OVARY, Strain/Indicator: CHO-AS52/6-THIOGUANINE, Metabolic Activation: NONE): inactive; negative
- mutagenic call (Test System: CHINESE HAMSTER OVARY, Strain/Indicator: CHO-K1-BH4 (HGPRT)/6-THIOGUANINE, Metabolic Activation: NONE): inactive; negative
- mutagenic call (Test System: CHINESE HAMSTER OVARY, Strain/Indicator: CHO-K1-BH4 (HGPRT)/6-THIOGUANINE, Metabolic Activation: RAT, LIVER, S-9, AROCLOR 1254): inactive; negative
